{"source": "patent US20200022957A1", "about": "“KINASE AND UBIQUITIN LIGASE INHIBITORS AND USES THEREOF” (ALDA S.R.L., priority 2015, published 2020)", "key": {"proteasome": {"tested_on": "proteasome", "assay": "Proteasome ZsProsensor-1 fluorescence in CFBE cells", "type": "cell-based, human", "details": "MG132 20 μg/ml for 3 h, positive control", "protocol": "CFBE cells treated with MLK3 or JNK2 siRNA for 72 h were transfected with Proteasome ZsProsensor-1 for the final 24 h, and the levels Proteasome ZsProsensor-1 monitored by fluorescence microscopy. Treatment with MG132 (20 μg/ml for 3 h), a proteasomal inhibitor, was used as a positive control."}, "JNK": {"tested_on": "JNK", "assay": "phospho-c-jun levels by western blotting as a measure of JNK inhibition in CFBE cells", "type": "cell-based, human", "details": "24 h, oxozeaenol 5 μM", "method": "A. CFBE cells were treated with indicated JNK inhibitors for 24 h and processed for western blotting. The levels of phospho-c-jun as a measure of JNK inhibition was monitored. […] B. CFBE cells were treated with TAK1 or MLK3 siRNA as indicated and changes in F508del-CFTR proteostasis were monitored by western blotting.\nC. CFBE cells were treated with 5 μM oxozeaenol for 48 h, or with MLK3 siRNA, or with both, and the correction of the F508del-CFTR folding/trafficking defect was monitored by changes in the levels of band C. There was no additive effect observed with the combination of MLK3 downregulation and oxozeaenol treatment. The quantitated band C levels are expressed as mean±SD (n>3). D. CFBE cells were treated with 5 μM oxozeaenol for 24 h, and the activity of the JNK pathway was measured by western blotting for phospho c-jun levels and F508del-CFTR. […] E. CFBE cells were treated with flunarizine (at concentrations 6.25-50 μM) targeting the CAMKK2 pathway for 48 h and the effect on F508del-CFTR proteostasis measured by western blotting. Treatment with flunarizine increased the levels of band C of F508del-CFTR. […] F. CFBE cells transiently transfected with the P-glycoprotein mutant (P-gp DY490), the NCC mutant (R948X), or the hERG mutant (G601S) were treated with JNKi II for 24 h, and the effect of the drug on their proteostasis monitored by western blotting. […]"}, "F508del-CFTR [1]": {"tested_on": "F508del-CFTR", "details": "primary human bronchial epithelial cells (Trzcinska-Daneluti et al. 2012); cited from earlier work"}, "F508del-CFTR [2]": {"tested_on": "F508del-CFTR", "assay": "F508del-CFTR proteostasis by western blotting (ER band B / Golgi-processed band C) in CFBE cells", "type": "cell-based, human", "details": "for levels of band B and band C of F508del-CFTR: concentration series; for decrease in levels of F508del-CFTR: rapid, abolished by MLK3 downregulation", "method": "Cells were washed three times in ice-cold Dulbecco's phosphate-buffered saline, and lysed in RIPA buffer (150 mM NaCl, 1% Triton X-100, 0.5% deoxycholic acid, 0.1% SDS, 20 mM Tris-HCl, pH 7.4), supplemented with protease inhibitor cocktail and phosphatase inhibitors. The lysates were clarified by centrifugation at 15000×g for 15 min, and the supernatants were resolved by SDS-PAGE. BCA Protein Assay kit (Pierce) was used to quantitate protein levels before loading. The western blots were decorated with appropriate antibodies and developed using ECL. The blots were then exposed to x-ray films and exposure time was varied to obtain optimal signal. The x-ray films were then scanned and the bands were quantitated using ImageJ gel-analysis tool. The protein concentration and the exposures used for quantitation of the blots were optimized to be in a linear range of detection.\nInventors then turned to experimental validation of the role of the CORE genes in the regulation of F508del-CFTR proteostasis. Experiments were carried out using a characterised biochemical assay that detects both the amount of core-glycosylated CFTR trapped in the ER (band B with Western blotting) and the amount of CFTR fully glycosylated in the Golgi (most of which presumably resides at the PM; band C with Western blotting)."}, "ATP7BH1069Q [3]": {"tested_on": "ATP7BH1069Q", "assay": "Immunofluorescence assay for correction of ATP7B: cells with ATP7BH1069Q signal in the ER, HeLa cells", "type": "cell-based, human", "details": "24 h, SB202190 5 μM, VX-745 1 μM, SP600125 2 μM, Oxozeaenol 5 μM, 100 μM CuSO4 2 h", "method": "(A) HeLa cells were infected with Ad-ATP7BWT-GFP (Chesi et al., 2016) or Ad-ATP7BH1069Q-GFP, incubated overnight with 200 μM BCS, and incubated for an additional 2 h with 100 μM CuSO4. In response to Cu, ATP7BWT traffics from the Golgi to PM and vesicle, while ATP7BH1069Q are retained within the ER under high Cu conditions. Addition of p38 inhibitor SB202190 (5 μM), VX-745(1 μM), JNK inhibitor SP600125 (2 μM) and Oxozeaenol (5 μM) (as indicated in corresponding panels) to the cells 24 h corrects ATP7BH1069Q from the ER to PM and vesicles (arrows) (B) Cells were treated as in panel A. The percentage of the cells (average±SD, n=50 fields) with an ATP7B signal in the ER, were calculated.\nCells were fixed with 4% paraformaldehyde in 0.2 M HEPES for 10 mins, permeabilized, labeled with primary and secondary antibodies, and examined with a ZEISS LSM 700 confocal microscope equipped with a 63×1.4 numerical aperture oil objective. The cells were scored based on the disappearance of ATP7B from the ER."}, "ATP7B H1069Q [4]": {"tested_on": "ATP7B H1069Q", "assay": "Traffic-based screening of ATP7B H1069Q-GFP rescue in HEPG2 cells", "type": "cell-based, human", "details": "HEPG2 cells expressing ATP7B H1069Q-GFP; 24 h", "method": "(§1) Transiently ATP7B H1069Q-GFP expressing HeLa cells (A), HEPG2 cells and (C) human primary hepatocytes (E) treated with the inhibitors for 24 hours, cells are processed for immunofluorescence assay to measure the arrival of the ATP7B wt and H1069Q mutant from the ER to Golgi compartment. A, C, E) Normalized Golgi fluorescence of ATP7B is measured and plotted (n >50 cells). B, D, F) EC50 and recue effect (%) compared to the level ATP7B WT Golgi fluorescence calculated from (A), (C) and (E) respectively. […] All the inhibitor drugs except SB202190 are in clinical trial for treatment of various other diseases.\n(§2) Cells were transfected with ATP7B-WT-GFP or ATP7B-H1069Q-GFP, incubated overnight with 200 μM BCS and/or drugs. Fixed cells were further labeled for TGN46 to mark and visualize the Golgi area under a confocal microscope. Under low copper conditions ATP7B-WT traffics to the Golgi from the ER, while ATP7B-H1069Q is retained within the ER. If the drug treatments induce the rescue of trafficking from the ER to the Golgi, the ATP7B-H1069Q-GFP fluorescence in the Golgi area increases. This is measured by quantifying (in 10 different microscopy fields in 100 cells) the increased in fluorescence of ATP7BWT-GFP or ATP7BH1069Q-GFP in the Golgi area (marked by TGN46) and normalizing this value to total cell fluorescence […]"}, "ATP7BH1069Q [5]": {"tested_on": "ATP7BH1069Q", "assay": "Copper estimation in HepG2 cells overexpressing ATP7BH1069Q", "type": "cell-based, human", "details": "1 μM, 24 hours, 200 μM copper sulphate for the last 2 hours", "method": "FIG. 14: The VX-745 and BIRB-796 correctors reduce Copper levels in cells expressing ATP7BH1069Q mutant. HepG2 cells overexpressing indicated ATP7B constructs were incubated with 1 μM each of VX-745, BIRB-796 for 24 hours, for the last 2 hours of incubation with the inhibitors 200 μM copper sulphate is added to the cells with or without 100 μM BCS (copper chelator) as indicated. Cells were incubated with HBSS for 3 hours before lysed and used for copper estimation. Fold change in copper normalized to control is plotted (n=4). Both VX-745 and BIRB-796 reduced Copper levels in ATP7BH1069Q expressing cells (BCS is used in the assay as a control for the sensitivity of the assay).\nCells are lysed in RIPA buffer (150 mM NaCl, 1% Triton X-100, 0.5% deoxycholic acid, 0.1% SDS, 20 mM Tris-HCl, pH 7.4). 500 μg of total protein lysate in 100 μl is taken for copper estimation using Copper assay kit (MAK127 sigma-aldrich) according to the manufacturer's protocol.\nATP7B protein functions in the excretion of copper out of cells and tissue. As ATP7B H1069Q trafficking to the plasma membrane is impaired, the cells cannot excrete the copper, which leads to higher level of intracellular copper. If the corrector drugs promote the correct localization of the mutant, then the copper should be excreted, leading to lower intracellular levels."}, "ATP7B H1069Q [6]": {"tested_on": "ATP7B H1069Q", "assay": "Traffic-based screening of ATP7B H1069Q-GFP rescue in human primary hepatocytes", "type": "cell-based", "details": "human primary hepatocytes expressing ATP7B H1069Q-GFP; 24 h", "method": "as §1, §2"}}, "note": "Peptide text beside a SMILES is read from it. * marks the point of attachment. Cbz = O=C(OCc1ccccc1)*", "data": [{"molecule": "CC(C)C[C@@H](C=O)NC(=O)[C@H](CC(C)C)NC(=O)[C@H](CC(C)C)NC(=O)OCc1ccccc1", "note": "[MG132] (Cbz-Leu-Leu-Leu-aldehyde)", "values": [{"measurement": "fluorescence levels of ZsProsensor-1 compared to untreated cells", "setting": "proteasome", "value": "increases"}]}, {"molecule": "COc1cc(O)c2c(c1)/C=C/C[C@H](O)[C@H](O)C(=O)/C=C\\C[C@H](C)OC2=O", "note": "[Oxozeaenol, (5Z)-7-oxozeaenol]", "values": [{"measurement": "phospho-c-jun levels", "setting": "JNK", "value": "reduced"}, {"measurement": "correction of the F508del-CFTR proteostasis defect", "setting": "F508del-CFTR [1]", "value": "effective"}, {"measurement": "levels of band B and band C of F508del-CFTR", "setting": "F508del-CFTR [2]; 48 h", "value": "markedly increased"}, {"measurement": "percentage of the cells exhibiting ATP7BH1069Q in the ER", "setting": "ATP7BH1069Q [3]", "value": "reduced"}]}, {"molecule": "Cc1ccc(Nc2nccc(N(C)c3ccc4c(C)n(C)nc4c3)n2)cc1S(N)(=O)=O", "note": "[Pazopanib]", "values": [{"measurement": "levels of band B and band C of F508del-CFTR", "setting": "F508del-CFTR [2]; 48 h", "value": "robust increases"}]}, {"molecule": "Oc1ccc(-c2nc(-c3ccncc3)c(-c3ccc(F)cc3)[nH]2)cc1", "note": "[SB202190]", "values": [{"measurement": "percentage of the cells exhibiting ATP7BH1069Q in the ER", "setting": "ATP7BH1069Q [3]", "value": "reduced"}]}, {"molecule": "O=C(O)c1ccc2c3c1cccc3c(=O)n1c3ccccc3nc21", "note": "[STO-609]", "values": [{"measurement": "correction of F508del-CFTR (levels of band C)", "setting": "F508del-CFTR [2]; 48 h", "value": "did not show any effect"}]}, {"molecule": "O=c1ncn2nc(Sc3ccc(F)cc3F)ccc2c1-c1c(Cl)cccc1Cl", "note": "[VX-745]", "values": [{"measurement": "rescue of ATP7B H1069Q (ER to Golgi)", "setting": "ATP7B H1069Q [4]", "value": "rescue H1069Q potently"}, {"measurement": "Copper levels in ATP7BH1069Q expressing cells", "setting": "ATP7BH1069Q [5]", "value": "reduced"}, {"measurement": "rescue of ATP7B H1069Q (ER to Golgi)", "setting": "ATP7B H1069Q [6]", "value": "rescue H1069Q potently"}, {"measurement": "percentage of the cells exhibiting ATP7BH1069Q in the ER", "setting": "ATP7BH1069Q [3]", "value": "reduced"}]}, {"molecule": "Cc1ccc(NC(=O)C2(c3ccc4c(c3)OC(F)(F)O4)CC2)nc1-c1cccc(C(=O)O)c1", "note": "[VX-809]", "values": [{"measurement": "level of ER-localised band B of F508del-CFTR", "setting": "F508del-CFTR [2]; 48 h", "value": "limited increase"}, {"measurement": "increase of band C levels over control", "setting": "F508del-CFTR [2]; VX-809 as reference for correction", "value": "4-5 fold"}]}, {"molecule": "O=C1c2c(O)ccc(O)c2C(=O)c2c(NCCNCCO)ccc(NCCNCCO)c21", "note": "[mitoxantrone]", "values": [{"measurement": "levels of band B and band C of F508del-CFTR", "setting": "F508del-CFTR [2]; 48 h", "value": "potently increase"}]}, {"molecule": "COc1ccc(CCN(C)CCCC(C#N)(c2ccc(OC)c(OC)c2)C(C)C)cc1OC", "note": "(stereo not drawn) [verapamil]", "values": [{"measurement": "correction of F508del-CFTR (levels of band C)", "setting": "F508del-CFTR [2]; 48 h", "value": "did not show any effect"}]}, {"molecule": "TGF-β", "values": [{"measurement": "decrease in levels of F508del-CFTR", "setting": "F508del-CFTR [2]", "value": 50, "unit": "%"}]}, {"molecule": "TNF-α", "values": [{"measurement": "decrease in levels of F508del-CFTR", "setting": "F508del-CFTR [2]", "value": 50, "unit": "%"}]}]}
